For 15 compounds, EC50 results are on record in patent publication US12077537B2 (Gilead Sciences, Inc., priority 2020, dated 2024).

Structures are written as SMILES.

The assay concerns HIV-IIIb. Put plainly: Antiviral assay in MT4 cells. It is filed as cell-based. To be noted: Human immunodeficiency virus 1, MT4, 120 h; MT-4 cells mixed with HIV-IIIb at m.o.i. 0.003; 5 days at 37° C.; CellTiter-Glo luminescence; 50% decrease in signal, a measure of HIV-1 replication. The protocol:
Antiviral Assay in MT4 Cells For the antiviral assay, 40 μL of a concentration required to achieve a final effective 1× test concentration of 3-fold serially diluted compound in culture medium with 10% FBS was added to each well of a 384-well plate (10 concentrations) in quadruplicate. MT-4 cells were next mixed with HIV-IIIb at an m.o.i of 0.003 for 1 hour, after which time 35 μL of virus/cell mixture (2000 cells) was immediately added to each well containing 40 μL of diluted compound. The plates were then incubated at 37° C. for 5 days. After 5 days of incubation, 25 μl of 2× concentrated CellTiter-Glom Reagent (catalog #G7571, Promega Biosciences, Inc., Madison, WI) was added to each well containing MT-4 cells. Cell lysis was carried out by incubating at room temperature for 10 min and then chemiluminescence was read.
For orientation: ATP-based viability assays read luminescence as a measure of living cells.

The term EC50 denotes the concentration at which the effect is half-maximal. Read a low EC50 as higher potency in that assay. In turn, `O=C(Cn1nc(C(F)(F)F)c2c1C(F)(F)[C@@H]1C[C@H]21)N[C@@H](Cc1cc(F)cc(F)c1)c1nc2nc(N3CCN(c4ccc(-c5ncc[nH]5)cc4)CC3)sc2cc1-c1ccc2c(c1)C(=O)NC2` [Compound 34, N—((S)-1-(2-(4-(4-(1H-imidazol-2-yl)phenyl)piperazin-1-yl)-6-(3-oxoisoindolin-5-yl)thiazolo[4,5-b]pyridin-5-yl)-2-(3,5-difluorophenyl)ethyl)-2-((3bS,4aR)-5,5-difluoro-3-(trifluoromethyl)-3b,4,4a,5-tetrahydro-1H-cyclopropa[3,4]cyclopenta[1,2-c]pyrazol-1-yl)acetamide] displayed a half-maximal effective concentration (EC50) of 0.0978 µM. The compound `O=C(Cn1nc(C(F)F)c2c1C1CC1CC2)N[C@@H](Cc1cc(F)cc(F)c1)c1nc2nc(N3CCN(c4ccc(-c5ncc[nH]5)cc4)CC3)sc2cc1-c1ccc2c(c1)C(=O)NC2` (stereo partly drawn) [Compound 35, N—((S)-1-(2-(4-(4-(1H-imidazol-2-yl)phenyl)piperazin-1-yl)-6-(3-oxoisoindolin-5-yl)thiazolo[4,5-b]pyridin-5-yl)-2-(3,5-difluorophenyl)ethyl)-2-(3-(difluoromethyl)-5,5a,6,6a-tetrahydrocyclopropa[g]indazol-1(4H)-yl)acetamide] displayed an EC50 of 0.0319 µM. Compared with the last compound, the EC50 is about 3.1-fold lower.

On to `O=C(Cn1nc(C(F)(F)F)c2c1C(F)(F)[C@@H]1C[C@H]21)N[C@@H](Cc1cc(F)cc(F)c1)c1nc2nc(N3CCN(c4ccncc4)CC3)sc2cc1-c1ccc2c(c1)C(=O)NC2` [Compound 36, 2-((3bS,4aR)-5,5-difluoro-3-(trifluoromethyl)-3b,4,4a,5-tetrahydro-1H-cyclopropa[3,4]cyclopenta[1,2-c]pyrazol-1-yl)-N—((S)-2-(3,5-difluorophenyl)-1-(6-(3-oxoisoindolin-5-yl)-2-(4-(pyridin-4-yl)piperazin-1-yl)thiazolo[4,5-b]pyridin-5-yl)ethyl)acetamide], for which the response was half-maximal at 0.0287 µM (EC50). The EC50 values of the last two compounds are within 1.5-fold of each other.

For `O=C(Cn1nc(C(F)(F)F)c2c1C(F)(F)[C@@H]1C[C@H]21)N[C@H](Cc1cc(F)cc(F)c1)c1nc2nc(N3CCN(c4ccncc4)CC3)sc2cc1-c1ccc2c(c1)C(=O)NC2` [Compound 37, 2-((3bS,4aR)-5,5-difluoro-3-(trifluoromethyl)-3b,4,4a,5-tetrahydro-1H-cyclopropa[3,4]cyclopenta[1,2-c]pyrazol-1-yl)-N—((R)-2-(3,5-difluorophenyl)-1-(6-(3-oxoisoindolin-5-yl)-2-(4-(pyridin-4-yl)piperazin-1-yl)thiazolo[4,5-b]pyridin-5-yl)ethyl)acetamide], the EC50 stood at 1.07 µM.

Compound `O=C(Cn1nc(C(F)(F)F)c2c1C(F)(F)[C@@H]1C[C@H]21)N[C@@H](Cc1cc(F)cc(F)c1)c1nc2nc(N3CCN(C4COC4)CC3)sc2cc1-c1ccc2c(c1)C(=O)NC2` [Compound 38, 2-((3bS,4aR)-5,5-difluoro-3-(trifluoromethyl)-3b,4,4a,5-tetrahydro-1H-cyclopropa[3,4]cyclopenta[1,2-c]pyrazol-1-yl)-N—((S)-2-(3,5-difluorophenyl)-1-(2-(4-(oxetan-3-yl)piperazin-1-yl)-6-(3-oxoisoindolin-5-yl)thiazolo[4,5-b]pyridin-5-yl)ethyl)acetamide] displayed an EC50 of 0.0101 µM. The same measure for `CC1(O)CN(c2nc3nc([C@H](Cc4cc(F)cc(F)c4)NC(=O)Cn4nc(C(F)(F)F)c5c4C(F)(F)[C@@H]4C[C@H]54)c(-c4cccc5c4CNC5=O)cc3s2)C1` [Compound 39, 2-((3bS,4aR)-5,5-difluoro-3-(trifluoromethyl)-3b,4,4a,5-tetrahydro-1H-cyclopropa[3,4]cyclopenta[1,2-c]pyrazol-1-yl)-N—((S)-2-(3,5-difluorophenyl)-1-(2-(3-hydroxy-3-methylazetidin-1-yl)-6-(1-oxoisoindolin-4-yl)thiazolo[4,5-b]pyridin-5-yl)ethyl)acetamide]: 0.0146 µM. In the case of `O=C(Cn1nc(C(F)(F)F)c2c1C(F)(F)[C@@H]1C[C@H]21)N[C@@H](Cc1cc(F)cc(F)c1)c1nc2nc(N3CCN(c4ccncc4)CC3)sc2cc1-c1cccc2c1CNC2=O` [Compound 40, 2-((3bS,4aR)-5,5-difluoro-3-(trifluoromethyl)-3b,4,4a,5-tetrahydro-1H-cyclopropa[3,4]cyclopenta[1,2-c]pyrazol-1-yl)-N—((S)-2-(3,5-difluorophenyl)-1-(6-(1-oxoisoindolin-4-yl)-2-(4-(pyridin-4-yl)piperazin-1-yl)thiazolo[4,5-b]pyridin-5-yl)ethyl)acetamide], the EC50 is 0.0281 µM. As to `NC(=O)c1cc(-c2cc3sc(N4CCN(c5ccc(-c6ncc[nH]6)cc5)CC4)nc3nc2[C@H](Cc2cc(F)cc(F)c2)NC(=O)Cn2nc(C(F)F)c3c2C2CC2CC3)ccc1F` (stereo partly drawn) [Compound 41, 5-(2-(4-(4-(1H-imidazol-2-yl)phenyl)piperazin-1-yl)-5-((1S)-1-(2-(3-(difluoromethyl)-5,5a,6,6a-tetrahydrocyclopropa[g]indazol-1(4H)-yl)acetamido)-2-(3,5-difluorophenyl)ethyl)thiazolo[4,5-b]pyridin-6-yl)-2-fluorobenzamide], the EC50 was 0.0981 µM. The same measure for `O=C(Cn1nc(C(F)(F)F)c2c1C(F)(F)[C@@H]1C[C@H]21)N[C@@H](Cc1cc(F)cc(F)c1)c1nc2nc(N3CCN(c4ccncc4)CC3)sc2cc1-c1ccc2c(c1)C(=O)NC21CC1` [Compound 42, 2-((3bS,4aR)-5,5-difluoro-3-(trifluoromethyl)-3b,4,4a,5-tetrahydro-1H-cyclopropa[3,4]cyclopenta[1,2-c]pyrazol-1-yl)-N—((S)-2-(3,5-difluorophenyl)-1-(6-(3′-oxospiro[cyclopropane-1,1′-isoindolin]-5′-yl)-2-(4-(pyridin-4-yl)piperazin-1-yl)thiazolo[4,5-b]pyridin-5-yl)ethyl)acetamide]: 0.0872 µM; for `CC1(O)CN(c2nc3nc([C@H](Cc4cc(F)cc(F)c4)NC(=O)Cn4nc(C(F)(F)F)c5c4C(F)(F)[C@@H]4C[C@H]54)c(-c4ccc5c(c4)C(=O)NC54CC4)cc3s2)C1` [Compound 43, 2-((3bS,4aR)-5,5-difluoro-3-(trifluoromethyl)-3b,4,4a,5-tetrahydro-1H-cyclopropa[3,4]cyclopenta[1,2-c]pyrazol-1-yl)-N—((S)-2-(3,5-difluorophenyl)-1-(2-(3-hydroxy-3-methylazetidin-1-yl)-6-(3′-oxospiro[cyclopropane-1,1′-isoindolin]-5′-yl)thiazolo[4,5-b]pyridin-5-yl)ethyl)acetamide]: 0.0225 µM; for `O=C(Cn1nc(C(F)(F)F)c2c1C(F)(F)[C@@H]1C[C@H]21)N[C@@H](Cc1cc(F)cc(F)c1)c1nc2nc(N3CCN(c4nc5ccccc5[nH]4)CC3)sc2cc1-c1ccc2c(c1)C(=O)NC21CC1` [Compound 44, N—((S)-1-(2-(4-(1H-benzo[d]imidazol-2-yl)piperazin-1-yl)-6-(3′ oxospiro[cyclopropane-1,1′-isoindolin]-5′-yl)thiazolo[4,5-b]pyridin-5-yl)-2-(3,5-difluorophenyl)ethyl)-2-((3bS,4aR)-5,5-difluoro-3-(trifluoromethyl)-3b,4,4a,5-tetrahydro-1H-cyclopropa[3,4]cyclopenta[1,2-c]pyrazol-1-yl)acetamide]: 0.0891 µM.

For `NC(=O)c1cc(-c2cc3sc(N4CCN(c5nc6ccccc6[nH]5)CC4)nc3nc2[C@H](Cc2cc(F)cc(F)c2)NC(=O)Cn2nc(C(F)(F)F)c3c2C(F)(F)[C@@H]2C[C@H]32)ccc1F` [Compound 45, 5-(2-(4-(1H-benzo[d]imidazol-2-yl)piperazin-1-yl)-5-((S)-1-(2-((3bS,4aR)-5,5-difluoro-3-(trifluoromethyl)-3b,4,4a,5-tetrahydro-1H-cyclopropa[3,4]cyclopenta[1,2-c]pyrazol-1-yl)acetamido)-2-(3,5-difluorophenyl)ethyl)thiazolo[4,5-b]pyridin-6-yl)-2-fluorobenzamide], the EC50 was 0.144 µM. Compared with the last compound, the EC50 is about 1.6-fold higher. The compound `NC(=O)c1cc(-c2cc3sc(N4CCN(c5nc6ccccc6[nH]5)CC4)nc3nc2[C@H](Cc2cc(F)cc(F)c2)NC(=O)Cn2nc(C(F)F)c3c2C2CC2CC3)ccc1F` (stereo partly drawn) [Compound 46, 5-(2-(4-(1H-benzo[d]imidazol-2-yl)piperazin-1-yl)-5-((1S)-1-(2-(3-(difluoromethyl)-5,5a,6,6a-tetrahydrocyclopropa[g]indazol-1(4H)-yl)acetamido)-2-(3,5-difluorophenyl)ethyl)thiazolo[4,5-b]pyridin-6-yl)-2-fluorobenzamide] showed an EC50 of 0.0852 µM. `NC(=O)c1cc(-c2cc3sc(N4CCN(c5ccncc5)CC4)nc3nc2[C@H](Cc2cc(F)cc(F)c2)NC(=O)Cn2nc(C(F)F)c3c2C2CC2CC3)ccc1F` (stereo partly drawn) [Compound 47] had an EC50 of 0.0293 µM. The compound `CC1(O)CN(c2nc3nc([C@H](Cc4cc(F)cc(F)c4)NC(=O)Cn4nc(C(F)(F)F)c5c4C(F)(F)[C@@H]4C[C@H]54)c(-c4ccc5n[nH]c(=O)n5c4)cc3s2)C1` [Compound 48, 2-((3bS,4aR)-5,5-difluoro-3-(trifluoromethyl)-3b,4,4a,5-tetrahydro-1H-cyclopropa[3,4]cyclopenta[1,2-c]pyrazol-1-yl)-N—((S)-2-(3,5-difluorophenyl)-1-(2-(3-hydroxy-3-methylazetidin-1-yl)-6-(3-oxo-2,3-dihydro-[1,2,4]triazolo[4,3-a]pyridin-6-yl)thiazolo[4,5-b]pyridin-5-yl)ethyl)acetamide] gave an EC50 of 0.249 µM.
